The results in this text go back to PMC12121777 (PLOS One, 2025).

The test system of one assay is Mtb 331/88 (i.e., H37Rv). Briefly: MIC, micro method in Šula's semisynthetic medium, drug-susceptible Mtb. Type of assay: cell-based, Mycobacterium tuberculosis. Conditions: Mycobacterium tuberculosis, H37RV.
Assay [1] deals with Mycobacterium avium 330/88. Briefly: MIC, micro method in Šula's semisynthetic medium, M. avium. The assay is classed as cell-based.
Assay [2] concerns Mycobacterium kansasii 6509/96. Briefly: MIC, micro method in Šula's semisynthetic medium, M. kansasii clinical isolate. Type of assay: cell-based. To be noted: read-out: MIC M. kansasii 6509/96.
Where [3] appears, read: 330/88, 336 h, read-out: MIC M. avium 330/88.
The mark [4] stands for this setting: 330/88, 504 h, read-out: MIC M. avium 330/88.

Values after ≈ are worked out from the molar mass of the structure shown. Like-named read-outs stand apart in the source and are kept apart here.

`CNC(=O)NNC(=O)c1cc([N+](=O)[O-])cc([N+](=O)[O-])c1` [Compound 4a, 2-(3,5-Dinitrobenzoyl)-N-methylhydrazine-1-carboxamide]: the MIC with Mtb 331/88 (i.e., H37Rv) (336 h, 14 days) is over 32 µM; in the assay on Mtb 331/88 (i.e., H37Rv) (504 h, 21 days), over 32 µM; in assay [1] (setting [3]) it was 1000 µM (≈ 283 µg/mL); in assay [1] (setting [4]) it was 1000 µM (≈ 283 µg/mL); in assay [2] (6509/96, 168 h), 250 µM (≈ 70.8 µg/mL); in assay [2] (6509/96, 336 h), 500 µM (≈ 142 µg/mL). In addition, the MIC in assay [2] (6509/96, 504 h) turned out to be 500 µM (≈ 142 µg/mL).
For `CCNC(=O)NNC(=O)c1cc([N+](=O)[O-])cc([N+](=O)[O-])c1` [Compound 4b, 2-(3,5-Dinitrobenzoyl)-N-ethylhydrazine-1-carboxamide], the MIC with Mtb 331/88 (i.e., H37Rv) (336 h, 14 days) is 32 µM (≈ 9.51 µg/mL); with Mtb 331/88 (i.e., H37Rv) (504 h, 21 days), over 32 µM; in assay [1] (setting [3]), 1000 µM (≈ 297 µg/mL); in assay [1] (setting [4]), 1000 µM (≈ 297 µg/mL); in assay [2] (6509/96, 168 h), 64 µM (≈ 19 µg/mL); in assay [2] (6509/96, 336 h), 125 µM (≈ 37.2 µg/mL). The MIC in assay [2] (6509/96, 504 h) amounted to 125 µM (≈ 37.2 µg/mL).
Consider `CCCNC(=O)NNC(=O)c1cc([N+](=O)[O-])cc([N+](=O)[O-])c1` [Compound 4c, 2-(3,5-Dinitrobenzoyl)-N-propylhydrazine-1-carboxamide], for which the MIC with Mtb 331/88 (i.e., H37Rv) (336 h, 14 days) was 16 µM (≈ 4.98 µg/mL); in the assay on Mtb 331/88 (i.e., H37Rv) (504 h, 21 days), 16 µM (≈ 4.98 µg/mL); in assay [1] (setting [3]) it was 1000 µM (≈ 311 µg/mL); in assay [1] (setting [4]) it was 1000 µM (≈ 311 µg/mL); in assay [2] (6509/96, 168 h), 8 µM (≈ 2.49 µg/mL); in assay [2] (6509/96, 336 h), 16 µM (≈ 4.98 µg/mL). For the same compound, in assay [2] (6509/96, 504 h), the MIC worked out at 16 µM (≈ 4.98 µg/mL).
`CCCCCCCCCCCCCCCCNC(=O)NNC(=O)c1cc([N+](=O)[O-])cc([N+](=O)[O-])c1` [Compound 4p, 2-(3,5-Dinitrobenzoyl)-N-hexadecylhydrazine-1-carboxamide]: the MIC is 8 µM (≈ 3.95 µg/mL) in the assay with Mtb 331/88 (i.e., H37Rv) (336 h, 14 days); 16 µM (≈ 7.9 µg/mL) against Mtb 331/88 (i.e., H37Rv) (504 h, 21 days); over 1000 µM in assay [1] (setting [3]); over 1000 µM in assay [1] (setting [4]); 8 µM (≈ 3.95 µg/mL) in assay [2] (6509/96, 168 h); 16 µM (≈ 7.9 µg/mL) in assay [2] (6509/96, 336 h). Also, the MIC in assay [2] (6509/96, 504 h) worked out at 16 µM (≈ 7.9 µg/mL).
With `CCCCCCCCCCCCCCCCCNC(=O)NNC(=O)c1cc([N+](=O)[O-])cc([N+](=O)[O-])c1` [Compound 4q, 2-(3,5-Dinitrobenzoyl)-N-heptadecylhydrazine-1-carboxamide], the MIC is 8 µM (≈ 4.06 µg/mL) in the assay on Mtb 331/88 (i.e., H37Rv) (336 h, 14 days); 16 µM (≈ 8.12 µg/mL) against Mtb 331/88 (i.e., H37Rv) (504 h, 21 days); over 500 µM in assay [1] (setting [3]); over 500 µM in assay [1] (setting [4]); 8 µM (≈ 4.06 µg/mL) in assay [2] (6509/96, 168 h); 16 µM (≈ 8.12 µg/mL) in assay [2] (6509/96, 336 h). Also, the MIC in assay [2] (6509/96, 504 h) came out at 16 µM (≈ 8.12 µg/mL).
Consider `CCCCCCCCCCCCCCCCCCNC(=O)NNC(=O)c1cc([N+](=O)[O-])cc([N+](=O)[O-])c1` [Compound 4r, 2-(3,5-Dinitrobenzoyl)-N-octadecylhydrazine-1-carboxamide], for which the MIC is 8 µM (≈ 4.17 µg/mL) with Mtb 331/88 (i.e., H37Rv) (336 h, 14 days); 16 µM (≈ 8.35 µg/mL) with Mtb 331/88 (i.e., H37Rv) (504 h, 21 days); over 1000 µM in assay [1] (setting [3]); over 1000 µM in assay [1] (setting [4]); 8 µM (≈ 4.17 µg/mL) in assay [2] (6509/96, 168 h); 16 µM (≈ 8.35 µg/mL) in assay [2] (6509/96, 336 h). For the same compound, in assay [2] (6509/96, 504 h), the MIC was 16 µM (≈ 8.35 µg/mL).
With `CNc1nnc(-c2cc([N+](=O)[O-])cc([N+](=O)[O-])c2)o1` [Compound 5a, 5-(3,5-Dinitrophenyl)-N-methyl-1,3,4-oxadiazol-2-amine], the MIC came out at 8 µM (≈ 2.12 µg/mL) against Mtb 331/88 (i.e., H37Rv) (336 h, 14 days); 16 µM (≈ 4.24 µg/mL) in the assay on Mtb 331/88 (i.e., H37Rv) (504 h, 21 days); 500 µM (≈ 133 µg/mL) in assay [1] (setting [3]); 500 µM (≈ 133 µg/mL) in assay [1] (setting [4]); 16 µM (≈ 4.24 µg/mL) in assay [2] (6509/96, 168 h); 32 µM (≈ 8.49 µg/mL) in assay [2] (6509/96, 336 h). Moreover, in assay [2] (6509/96, 504 h), the MIC turned out to be 32 µM (≈ 8.49 µg/mL).
In the case of `CCNc1nnc(-c2cc([N+](=O)[O-])cc([N+](=O)[O-])c2)o1` [Compound 5b, 5-(3,5-Dinitrophenyl)-N-ethyl-1,3,4-oxadiazol-2-amine], the MIC in the assay on Mtb 331/88 (i.e., H37Rv) (336 h, 14 days) is 8 µM (≈ 2.23 µg/mL); in the assay with Mtb 331/88 (i.e., H37Rv) (504 h, 21 days), 16 µM (≈ 4.47 µg/mL); in assay [1] (setting [3]), over 1000 µM; in assay [1] (setting [4]) it was over 1000 µM; in assay [1] (330/88, read-out: MIC M. avium), over 1000 µM; in assay [2] (6509/96, 168 h), 16 µM (≈ 4.47 µg/mL). Besides, the MIC in assay [2] (6509/96, 336 h) came to 32 µM (≈ 8.93 µg/mL); in assay [2] (6509/96, 504 h) it was 32 µM (≈ 8.93 µg/mL).
Turning to `CCCNc1nnc(-c2cc([N+](=O)[O-])cc([N+](=O)[O-])c2)o1` [Compound 5c, 5-(3,5-Dinitrophenyl)-N-propyl-1,3,4-oxadiazol-2-amine], the MIC in the assay with Mtb 331/88 (i.e., H37Rv) (336 h, 14 days) was 4 µM (≈ 1.17 µg/mL); with Mtb 331/88 (i.e., H37Rv) (504 h, 21 days), 4 µM (≈ 1.17 µg/mL); in assay [1] (setting [3]), over 500 µM; in assay [1] (setting [4]), over 500 µM; in assay [2] (6509/96, 168 h), 4 µM (≈ 1.17 µg/mL); in assay [2] (6509/96, 336 h), 8 µM (≈ 2.35 µg/mL). In addition, the MIC in assay [2] (6509/96, 504 h) was determined as 16 µM (≈ 4.69 µg/mL).
